Assay results from publication PMC12520537, “A Multi‐Property Optimizing Generative Adversarial Network for de novo Antimicrobial Peptide Design” (Advanced Science, 2025).
Where two headings read alike, the source gives them in different places. Ends that are not written are not given here.

How the values were obtained:
E. coli BL21(DE3) = type: cell-based; conditions: BL21, 18 h
Protocol: (§1) The antimicrobial activity of the synthesized AMPs was evaluated against several strains, including E. coli BL21(DE3), S. aureus BNCC186335, B. subtilis BNCC109047, and drug‐resistant strains such as E coli XJ13000957, E. coli XJ13022488, E. coli XJ19025100, E. coli XJ22006301, and MRSA ATCC43300. All strains are stored at ‐80°C and, before testing, were transferred into fresh Mueller‐Hinton Medium and incubated for 24 h at 37°C. Fresh cultures were used for the antimicrobial assays. The MIC values were determined using the broth microdilution method according to the Clinical and Laboratory Standards Institute (CLSI) protocol. Initial bacterial inoculums (5× 10^5 colony forming units (CFU)/mL) in Mueller‐Hinton Broth were exposed to varying concentrations of the compounds (0.5‐512 µg/mL) and incubated for 18 h at 37°C. The experiments are conducted on 96‐well microtiter plates with a final volume of 100 µL. The MIC was defined as the lowest concentration of the compound that inhibits visible bacterial growth. Additionally, the MBC was evaluated. After determining the MIC, samples from the MIC well and two higher concentrations are plated on agar plates. The MBC was recorded as the lowest concentration at which no visible bacterial colonies were observed. All experiments were performed in triplicate, with positive controls (ensuring proper bacterial growth) and negative controls (ensuring sterility) included.

S. aureus BNCC186335 = type: cell-based; conditions: BNCC186335, 18 h
Protocol: as §1

B. subtilis BNCC109047 = type: cell-based; conditions: BNCC109047, 18 h
Protocol: as §1

MC3T3-E1 cells = type: cell-based, mouse
Excerpt: (§2) The assessment of cytotoxicity primarily relies on alterations in cell membrane permeability. To evaluate the cytotoxicity of AMPs, we employed the Cell Counting Kit‐8 (CCK‐8) assay, which is widely recognized as one of the most frequently used methods for assessing cytotoxicity. The CCK‐8 assay utilizes WST‐8 [2‐(2‐Methoxy‐4‐nitrophenyl)‐3‐(4‐nitrophenyl)‐5‐(2,4‐disulfophenyl)‐2H‐tetrazolium Sodium Salt] for rapid detection based on the principle that intracellular dehydrogenase‐mediated biological reduction of WST‐8 generates an orange formazan dye. This dye can dissolve in the medium, and its quantity is directly proportional to the number of viable cells. For the cytotoxicity test, 2 000 MC3T3‐E1 cells or CH3 cells were seeded into each well of 96‐well plates and cultured in DMEM medium containing 10% FBS and 1% penicillin‐streptomycin at 37 °C and 5% CO2overnight. Then the culture medium was removed, and the AMPs at the various concentrations in the media were added to each well. The cells were further incubated for 48 h, followed by the addition of […] of CCK‐8 and subsequent incubation for 1 h. The absorbance of the solution was measured at 450 nm by a microplate reader. The cell viability was calculated as follows (A represents absorbance): (11) %Cell viability=Asample−Ablank/Anegative−Ablank×100
The data were plotted as AMP concentration versus the percentage of living cells using GraphPad Prism 8.0.

E. coli XJ19025100 = type: cell-based; conditions: XJ19025100, 18 h
Protocol: as §1

[1] = test system: bone marrow mesenchymal stem cells CH3; type: cell-based
Excerpt: as §2, with “viability=Asample−Ablank/Anegative−Ablank×100 […]” for “viability=Asample−Ablank/Anegative−Ablank×100”

human red blood cells = type: cell-based; conditions: 3 h
Protocol: Anticoagulant whole blood was diluted with PBS at a ratio of 1:1 and subsequently centrifuged at 1500×g for 10 minutes. The supernatant and white blood cell layer were discarded, while the red blood cells were washed three times with PBS until the supernatant became colorless and transparent. A 2% red blood cell suspension was then prepared using PBS. For the positive control, 0.2 mL of 1% Triton X‐100 was mixed with 0.8 mL of the red blood cell suspension. The negative control consisted of 0.2 mL of PBS combined with 0.8 mL of the red blood cell suspension. In the experimental group, 0.2 mL of MPOP‐03 (prepared at gradient concentrations) was added to 0.8 mL of the red blood cell suspension. Three replicates were prepared for each group. All samples were incubated at 37°C in a constant temperature water bath for 3 hours. Following incubation, the samples were centrifuged at 1500×g for 5 minutes, and the supernatants were carefully aspirated and transferred to new centrifuge tubes. The optical density values of the samples were measured at a wavelength of 524 nm using a microplate reader. The hemolysis ratio was calculated as follows (A represents absorbance): (12) %Hemolysis ratio=Asample−Anegative/Apositive−Anegative×100

Row | Sequence | MIC E. coli (E. coli BL21(DE3)) [µg/mL] | MIC S. aureus (S. aureus BNCC186335) [µg/mL] | MIC B. subtilis (B. subtilis BNCC109047) [µg/mL] | CC50 (MC3T3-E1) (MC3T3-E1 cells) [µg/mL] | MIC against E. coli XJ19025100 (E. coli XJ19025100) [µg/mL] | CC50 for CH3 [1] [µg/mL] | CC50 for CH3 ([1]; 48 h) [µg/mL] | HC50 (concentration required to induce 50% hemolysis of red blood cells) (human red blood cells) [µg/mL] | CC50 for MC3T3-E1 (MC3T3-E1 cells; 48 h) [µg/mL]
1 | GGGGMLKYFKTAIHTIKKIGQKIVN [MPOP-04] | 16 | 4 | 4 | 22 | – | – | – | – | –
2 | GIGKFLHSFTKFFSKIMNAIR [MPOP-07] | – | 4 | 4 | 35 | – | – | – | – | –
3 | IKGIIKTIKKMASHFLHSAS [MPOP-09] | 16 | 8 | 8 | 118 | – | – | – | – | –
4 | VMKRIGTILSGLHSLLSKIF [MPOP-05] | 32 | 4 | 4 | 28 | – | – | – | – | –
5 | MSKFKHFFNAVKSIFRGLTK [MPOP-03] | – | – | 2 | 85 | ≤ 8 | 32.47 | 34.27 | 256 | 84.96
6 | GLFDVIKKIAEMVSNGYHTVKKKF [MPOP-08] | 32 | 4 | 4 | 24 | – | – | – | – | –
7 | KLFRVVKKMFHSVFSSIHKYFR [MPOP-06] | 32 | 8 | 8 | 20 | – | – | – | – | –
8 | IGSFKHVFKRITSMAKAIR [MPOP-10] | 256 | 32 | 32 | – | – | – | – | – | –
9 | DPFGIMSKLQQFIRKFYQSLKHLKT [MPOP-01] | 128 | 4 | 8 | 24 | – | – | – | – | –
10 | LHQIKSVIKTAMNVLSGLFSAIKKK [MPOP-02] | 32 | 4 | 4 | 15 | – | – | – | – | –
